In patent publication US7429448B2, “Therapeutic use of the SMR1 protein and active derivatives thereof” (Institut Pasteur, priority 1998, dated 2008):
Each block holds one molecule with its values, some of them ahead of it. Square brackets hold non-standard residues; d marks the D form. Ends that are not written are not given here. pGlu = O=C1CC[C@@H](C(=O)O)N1

Tests used:
[1] = rat, in vivo
Experimental: FIG. 4. Quantitative profile of radioactivity in various tissues following administration of 100 pmoles ^3H-hexapeptide, 60 min post-dose or plus 100 nmoles unlabelled peptide to non specific binding.
Quantification was assessed using a spectrometer and calculated as cpm/mg protein from whole tissue extracts.
FIG. 5. Quantitative profile of radioactivity in various tissues following administration of 5 pmoles ^125I-undecapeptide (VRGPRRQHNPR, SEQ ID NO: 7), 10 min post-dose or plus 100 nmoles unlabeled peptide to non specific binding.
Quantification was assessed using a gama-spectrometer and calculated as cpm/g tissue.

[2] = test system: pentapeptide binding sites; test: In vivo displacement of ^3H-pentapeptide uptake by coinjection of 100-fold excess unlabeled peptide; set-up: species or system rat; settings: for specific labeling percentage: 60 min, 100-fold excess unlabeled peptide
Excerpt: Biological receptor sites have two essential characteristics that allow specific binding to be identified, in vivo; they have a high affinity for the ligand and the binding is saturable (Whitcomb et al., 1993). Therefore, displacement experiments, using parallel systemic administration of an excess of the corresponding unlabeled peptide has been performed. Furthermore, the specific cellular localization of labeled pentapeptide to target tissues has been identified by section microscopic autoradiography.
(§1) The cellular-site localization for physiological concentrations of labeled pentapeptide was investigated by paraffin- or resin-section microscopic autoradiography procedure. Sixty minutes after ^3H-pentapeptide (555 KBq, 160 ng or 250 pmoles) i.v. administration, the anesthetized male rats were perfused via the jugular veins with ice-cold Krebs Ringer Bicarbonate Glucosed buffer and then 0.5% paraformaldehyde/0.5% glutaraldehyde fixative PBS buffer (plus glucose 1.6%, CaCl2 0.002% and DMSO 1%) (50 ml/5 min. for each). Tissues were rapidly removed and harvested for paraffin sectioning (Paraplast plus-Sherwood medical, OSI, France) or for resin sectioning (histo-resin Leica, France). All sections were cut at 5 microns (Reichert Jung for paraffin and RM2155 Leica for resin sections) and mounted on Superfrost/Plus glass slides (non gelatin-coated). Paraffin was removed with xylene, and sections were carried through a descending, then an ascending ethanol series (from 100 to 50%, V/V and reverse). Dried sections were then processed for light microscope autoradiography by attaching nuclear emulsion-coated (Kodak, NTB2, diluted 1:1 with distilled water) coverslips to them. After air drying for 2 hrs at room temperature the autoradiographs were exposed for 6 to 10 weeks in light-tight boxes at 4° C. Radiosensitive coverslips were developed in Kodak D19 (3 min.) developer and fixed in Kodak fixer (3 min.) Sections were counterstained with Harris' hematoxylin (Prolabo, France) and Toluidine blue (Sigma, France), dehydrated and mounted in Eukitt medium. The tissue and overlying silver grains were viewed and photographed with a Leica photomicroscope equipped with bright-field optics (DMRD Leitz, Leica).
The tritium activity was determined as counts/mm^2.
In the case of radioactive quantification of organ sections or acid extracts, using a liquid scintillation counter (MR300Kontron), the tritium activity was determined as cpm/mg protein. Protein concentration was determined by the Bradford method (Bradford et al., 1976).

[3] = Chromatographic characterization of radioactive peptide uptake by tissues; format: in vivo, rat; settings: 180 min after injection
Experimental: The chromatographic characteristics of the labeled compound associated, in vivo, to target organs were assessed by HPLC.
At selected time points (2 and 180 min.) after administration of tritiated pentapeptide, the anesthetized rats were sacrificed (cardiac blood puncture) and tissues quickly removed on ice. The tissues were immediately homogenized at 4° C. in 5-10 volumes of 0.1 M chlorhydric acid using a potter homogenizer (demineralization of bone tissue was realized after 24-48 h at 4° C. in guanidium hydrochloride and EDTA pretreatment, 4 M and 0.25 M final concentration, respectively). Homogenates were centrifuged for 30 min. at 4° C. and 15,000 g. To determine total radioactivity, aliquots of the supernatant solution were added to 50 volumes of Biofluor (NEN, Dupont de Nemours, France) and counted in a liquid scintillation counter.
To determine the radioactivity in the pentapeptide fraction, aliquots of the tissue extracts were submitted to a methanol-extraction procedure (Rougeot et al., 1994) after neutralization with Tris/HCl pH 8.5 containing 16 mM DTPA (DiethyleneTriaminePenta-Acetic acid, Sigma, France). […] Fractions were collected every 60 sec. and analyzed for radioactivity using a liquid scintillation counter.

[4] = test system: ^3H-pentapeptide binding sites; test: Cellular localization of ^3H-pentapeptide binding sites by light microscopic autoradiography; format: in vivo, rat
Experimental: as §1

[5] = Pentapeptide metabolic and pharmacokinetic studies after i.v. bolus of tritiated pentapeptide; format: in vivo, rat
Experimental: The in vivo time course of distribution, metabolism and elimination of the pentapeptide was investigated in anesthetized adult male rats using physiological concentrations of circulating tritiated pentapeptide.
Anesthetized male rats were given a bolus intravenous injection of 170 pmoles or 110 ng tritiated pentapeptide diluted in 100 μl PBS Dulbecco's. Blood was collected in tubes containing a mixture of peptidase inhibitors described above, via a silastic catheter implanted into the external jugular vein. Blood was withdrawn just before and 2, 4, 6, 8, 10, 20, 30, 45, 60, 90 and 120 min. after peptide administration. Two milliliters of blood per rat were taken in all and the entire urinary bladder content was collected at a last selected point.
The biological samples were submitted to centrifugation and Parapak Q extraction conditions, as described above. Chromatrography using HPLC procedure described above and in the reference (Rougeot et al., 1994) was then applied to each extracted sample. The ODS AQ RP-C18 was used for identification of amino-terminal metabolites and Pep RPC HR C18 (Pharmacia, France) for identification of carboxyl-terminal metabolites. The radioactivity content of samples before and after chromatographic separations was determined using a beta counter (Kontron, MR300).

[6] = rat, in vivo; remark: listed apart in the source
Experimental: Labeled compound i.e. 6.66 MBq, 3 nmoles or 2 mg for whole body autoradiography (WBA) and 370-555 KBq, 170-250 pmoles or 110-160 ng for the pharmacokinetic and cellular-site distribution studies was diluted in 100-200 ml of phosphate-buffered saline (PBS Dulbecco's, Bio Media, France) and administered intravenously into the jugular vein of anesthetized rats (halothan for WBA or pentobarbital for all the other experiments).
The target tissues for the final secretory maturation product of SMR1, the pentapeptide, was examined, in vivo, by the whole body autoradiography procedure according to the method of Ullberg (Ullberg et al., 1981).
The five week-old rats were sacrificed under halothane, at 90 sec., 3, 60 and 240 min. after i.v. injection of 3 nmoles (6.66 MBq or 2 μg) of tritiated pentapeptide. At the selected time, the restrained animal was immediately immersed in a −80° C. mixture of dry ice and isopentane, to prevent artifactual tracer redistribution. After 48 hours in self-sealing plastic stored at −30° C., the animal was then blocked in mounting medium. Whole body sagittal sections (20 mm) of the frozen rat were made at −30° C. with a cryostat (whole body slicing microtome Leitz 400 with a chest mobile freezer Leitz O M, Leica, France). Sections adhering to Scotch tape were left in a freezer, temperature −30° C., for 4 days to insure complete drying. The tapes were placed in a film cassette with ^3H Hyperfilm (Amersham, France) at −20° C. After two weeks the films were developed in Kodak D19 developer and fixed in Kodak fixer.
Data from whole body sections or individual organ sections placed in the gas-chamber detector were collected for 8 hr. or 50 hr., respectively. The number of counts per pixel was recorded in the β imager 2200 (Biospace, France) with a surface detector of 20×20 cm^2, followed by computer-assisted image analysis with the β Vision program using a HP Vectra computer. The tritium activity was determined as counts/mm^2. The linearity of this method of detection allowed measurement of the non specific binding of ^3H-pentapeptide, measured in various structures or compartments within the section with apparent non binding sites for the peptide (background tissues, e.g. muscle and cardiac blood except brain and spinal cord) or in the same labeled structure, in displacement experiments.

[7] = target: anti-pentapeptide serum (rabbit antiserum raised against QHNPR conjugated to egg albumin); test: competitive liquid phase RIA, displacement of 125I-labelled pentapeptide from the antiserum
[8] = single i.v. injection of 110 ng

Molecule: RQHNPR [hexapeptide]
preferred target organs [1]: kidney and pancreas
retention by the glandular mucosa of stomach [1]: very efficiently retained
target organs compared with the pentapeptide [1]: almost the same as the target organs of the pentapeptide

B1: (Gln1)-His-Asn-Pro-Arg, SMR1-derived pentapeptide QHNPR (unlabelled) (peptide)
peptide: QHNPR
amount of standard for 50% displacement [7]: < 570 fmol
detection limit (80% binding) [7]: 106 fmol

B3: (Glp1)-His-Asn-Pro-Arg (peptide)
peptide: [pGlu]HNPR
amount of standard for 50% displacement [7]: < 570 fmol
detection limit (80% binding) [7]: 106 fmol

Now from value to molecule, other results behind:

preferred target organs [1]: kidney and pancreas
Molecule: VRGPRRQHNPR [undecapeptide]
target organs compared with the pentapeptide [1]: almost the same as the target organs of the pentapeptide

radioactive extract representing metabolites ([3]; DTPA): 8±6%
radioactive peptide fraction extracted by methanol ([3]; DTPA 16 mM added): 53±9%
cellular localization of silver grains ([4]; bone tissue): the trabeculae bone spaces
cellular localization of silver grains ([4]; dental tissue, upper incisor root): over the entire dentin layer
cellular localization of silver grains ([4]; glandular gastric mucosa): over the chief or peptic cells
cellular label ([4]; glomeruli, epithelia of distal and collecting tubules): No specific cellular label
cellular label ([4]; pancreatic ducts and islets of Langerhans): No label was observed
cellular localization of silver grains ([4]; pancreatic tissue): over the cells of acini
amount eliminated through glomerular filtration ([5]; over a 60 min period, anesthetized rats, 170 pmoles dose): 6 pmol
pentapeptide-binding substance complex as share of the circulating peptide fraction ([5]; plasma): approximately 45%
urine radioactivity that is pentapeptide metabolites ([5]; rat, in vivo): Approximately 80%
time from which plasma concentration is back close to a basal level [5, 8]: ≥ 30 min
time to maximal plasma level [5, 8]: ≤ 2 min
infused pentapeptide metabolized in the bloodstream ([5]; within 4 min): 35%
radioactivity in the intestinal content [6]: No radioactivity was found
time by which binding to tissue sites has occurred [6]: ≤ 90 s
time over which binding is stable [6]: 240 min
tissue to blood ratio [6]: ~2
Molecule: QHNPR [pentapeptide, (Gln1)-His-Asn-Pro-Arg]
specific labeling percentage ([2]; glandular mucosa of the stomach): 38-61%
specific labeling percentage ([2]; long bone): 29-38%
specific labeling percentage ([2]; pancreatic lobules): 37-55%
displacement of uptake by excess cold ligand ([2]; renal outer medullary): almost complete displacement
specific labeling percentage ([2]; submandibular lobules): 51-91%
cellular localization of silver grains ([4]; kidney, 60 min, physiological concentration): over the epithelial cells of the S3 segment of the straight portion of the proximal tubules
cellular label ([4]; submandibular tissue): no selective cell association of label was identifiable

cross-reactivity [7]: < 0.01%
B2: tetrapeptide sequence (QHNP) (peptide)
peptide: QHNP
